Data published in patent US10471057B2, “Toxic RNA inhibitors self-assembled in situ” (THE SCRIPPS RESEARCH INSTITUTE, priority 2014, dated 2019).
Entries after “also recorded” stand apart in the source; their conditions may differ.

Tests used:
r(CUG)exp [1] = test: DM1 pre-mRNA splicing defects in patient derived fibroblasts; format: cell-based, human
Description: Bioactivity of small molecule dimers was assessed by using DM1 patient derived fibroblasts containing 500 CTG repeats (GM03987) and healthy fibroblasts (GM07492). Cells were grown as monolayers in 12 well plates in growth medium (1×EMEM (Lonza), 10% FBS, 1× glutagro (Corning), 1×MEM non-essential amino acids (Corning) and 1× antibiotic/antimycotic (Corning)). Once cells were ˜80% confluent, they were treated with growth medium containing the compound of interest (10, 1, 0.1 and 0.01 μM 2H-K4NMeS; 100, 10 and 1 nM 2H-K4NMeS-CA-Biotin; 1 μM N3-2H-K4NMeS; 500 nM N3-2H-K4NMeS+500 nM 2H-K4NMeS-Aminohexanoate; 1000, 10 and 0.1 nM N3-2H-K4NMeS-Aak; 250, 100, and 50 nM 2H-K4NMeS-Bleomycin A5). After 48 h the cells were lysed and the total RNA was harvested using a Zymo Quick RNA miniprep kit. An on-column DNA digestion was completed per the manufacturer's recommended protocol. Approximately 150 ng of total RNA was reverse transcribed at 50° C. using 100 units of SuperScript III reverse transcriptase (Life Technologies). Then 20% of the RT reaction was subjected to PCR using GoTaq DNA polymerase (Promega). RT-PCR products were observed after 25 cycles of 95° C. for 30 s, 58° C. for 30 s, 72° C. for 1 min and a final extension at 72° C. for 1 min. The products were separated on an 2% agarose gel ran at 100 V for 1 h in 1×TAE buffer. The products were visualized by staining with ethidium bromide and scanned using a Bio-Rad Gel Doc XR+ imaging system. The RT-PCR primers for the MBNL1 were […]

r(CUG)109 = test: In vitro reaction and pull down of small molecule dimers with RNA; format: biochemical; settings: rCUG109, GC-based paired RNA and tRNA
Description: Then 30 μL of this slurry were added to each sample and incubated at room temperature for 1 h. Then the samples were centrifuged and the supernatant was transferred to a separate tube. The beads were then washed with 1×PBST and centrifuged. The supernatant was transferred to the tube containing the unbound RNA. The total radioactive counts of bound and unbound RNA were measured by scintillation counting.

DMPK mRNA = settings: 100 nM, 48 h, qRT-PCR of r(CUG)-containing mRNAs
Description: Target identification of small molecule dimers was assessed using DM1 patient derived fibroblasts containing 500 CTG repeats (GM03987) and healthy fibroblasts (GM07492). Cells were grown as monolayers in 100 mm^2 in growth medium (1×EMEM (Lonza), 10% FBS, 1× glutagro (Corning), 1×MEM non-essential amino acids (Corning) and 1× antibiotic/antimycotic (Corning)). Once cells were 80% confluent, they were treated with growth medium containing the compound of interest (100 nM 2H-K4NMeS-CA-Biotin). After 48 h the cells were lysed and the total RNA was harvested using Trizol reagent (Life Technologies). Approximately 10 of total RNA was incubated with streptavidin-agarose beads (100 Sigma) for 1 h at room temperature. Then the beads were washed with 1×PBS and the bound RNA was eluted by adding 100 μL of 95% formamide, 10 mM EDTA pH 8.2 for 10 min at 60° C. The bound RNA was cleaned up using a Zymo Quick RNA miniprep kit. Approximately 100 ng of RNA was used for RT qScript cDNA synthesis kit (Quanta BioSciences). 10% of the RT reaction was used for real time PCR (qPCR) with SYBR green master mix (Life Technologies) performed on a 7900HT Fast Real-Time PCR System (Applied Biosystems). Monitored rCUG-containing mRNAs DMPK (500 repeats), SUPT20HL1 (17 repeats), CASK (16 repeats), LRP8 (11 repeats), MAP3K4 (11 repeats), SCUBE (7 repeats) and SORCS2 (7 repeats). Quantified by ΔΔCt relative to GAPDH

[2] = Metabolic stability in rat microsomes; format: in vitro ADME
r(CUG)exp [3] = test: Splicing defects in HSA LR DM1 mouse model; format: in vivo; settings: intraperitoneal once per day for 7 days, vastus muscle
Description: All experimental procedures, mouse handling, and husbandry were completed in accordance with the Association for Assessment and Accreditation of Laboratory Animal Care. A mouse model for DM1^[8], HSA^LR in line 20b, was used. HSA^LR mice express human skeletal actin RNA with 250 CUG repeats in the 3′ UTR. Age- and gender-matched HSA^LR mice were injected intraperitoneally with either 100 mg/kg 2H-K4NMe in water or 13.3 mg/kg 2H-K4NMeS for treatment and 0.9% NaCl for control once per day for 7 days. Mice were sacrificed one day after the last injection, and the vastus muscle was obtained. RNA was extracted from the vastus tissue, and cDNA was synthesized as previously described.

r(CUG)exp [4] = test: Nuclear foci by FISH in DM1 patient derived fibroblasts; format: cell-based, human; settings: 48 h
Description: FISH was utilized to determine the effects of small molecule dimers on the formation and disruption of nuclear foci. DM1 patient derived fibroblasts containing 500 CTG repeats (GM03987) were grown to ˜80% confluence in a Mat-Tek 96-well glass bottom plate in growth medium. Cells were treated with the compound of interest for 48 h in growth medium followed by FISH as previously described^6 using 1 ng/μL DY547-2′OMe-(CAG)6. Immunostaining of MBNL1 was completed as previously described^7 using the MB1a antibody (diluted 1:4), which was generously supplied by Prof. Glenn E. Morris (Wolfson Centre for Inherited Neuromuscular Disease^[9]. This was fluorescently labeled using a 1:200 dilution of goat anti-mouse IgG DyLight 488 conjugate. Untreated controls were stained using a 1 μg/μL solution of DAPI in 1×DPBS. Cells were imaged in 1×DPBS using an Olympus FluoView 1000 confocal microscope at 100× magnification.

[5] = system: r(CUG) repeats in 3' UTR of luciferase; test: Translational defect luciferase reporter assay, 800 CTG repeats; format: cell-based; settings: cells with long, toxic r(CUG) repeats
Description: (§1) C2C12 cell lines expressing 800 or 0 CTG repeats in the 3′ UTR of luciferase were grown as monolayers in 96-well plates in growth medium (1×DMEM, 10% FBS, 1× glutagro, (Corning) andlX antibiotic/antimycotic (Corning))^[10]. Once the cells were 70% confluent, the click functionalized dimers were added in 100 μL of growth medium (1000 nM N3-2H-K4NMeS and 1000, 10 and 0.1 nM N3-2H-K4NMeS-Aak). Cells were treated with compound for 48 h and then the cell count was normalized using WST-1 reagent (Roche). Then cells were washed with 1×DPBS and lysed by treating with 50 μL of PPBT lysis buffer at room temperature for 10 minutes. Then 50 μL of luciferase substrate was added and luminescence was measured.

[6] = system: luciferase reporter without CTG repeats; test: Translational defect luciferase reporter assay, 0 CTG repeats; format: cell-based
Description: as §1

r(CCUG)300 = test: Disruption of nuclear foci by FISH in DM2 cell culture model; format: cell-based; settings: C2C12 cells expressing r(CCUG)300, 72 h treatment; untreated 9±2
Description: FISH was utilized to determine the effects of clickable compounds on the formation of nuclear foci. C2C12 were sub-cultured into Mat-Tek 96-well glass bottom plates in growth medium. After the cells reached 60-70% confluency, each well was transfected with 200 ng of total plasmid using 1 μL of Lipofectamine 2000 according to the manufacturer's standard protocol. Equal amounts of plasmids expressing the DM2 mini-gene^[1] and EGFP, used as a positive marker of transfection, were used. After 5 h, the transfection cocktail was removed and replaced with differentiation medium containing the compound of interest. The cells were treated with compound for 72 h followed by FISH as previously described using 1 ng/μL DY547-2′OMe-(CAGG)5^[6]. Cells were imaged in 1×DPBS using an Olympus FluoView 1000 confocal microscope at 100× magnification.

Compound: C[C@H](NC(=O)[C@H](C)N(C)C(=O)CN(CCN(C)C(=O)CCCOc1cccc(-c2nc3ccc(-c4nc5cc(N6CCN(C)CC6)ccc5[nH]4)cc3[nH]2)c1)C(=O)CN(CCNC(=O)CCCC[C@@H]1SC[C@@H]2NC(=O)N[C@@H]21)C(=O)CCNC(=O)CCCc1ccc(N(CCCl)CCCl)cc1)C(=O)N(C)[C@@H](C)C(=O)N(CCCCN(C)C(=O)CCCOc1cccc(-c2nc3ccc(-c4nc5cc(N6CCN(C)CC6)ccc5[nH]4)cc3[nH]2)c1)CC(N)=O [2H-K4NMeS-CA-Biotin]
- improvement of DM1-associated pre-mRNA splicing defects (in words) (r(CUG)exp [1]; cells): improves DM1-associated pre-mRNA splicing defects in cells
- in vitro reaction with RNA targets (r(CUG)109): most effectively reacted with r(CUG)109
- RNA targets pulled down (Chem-CLIP) (DMPK mRNA): binds to disease-causing expanded transcripts and not other RNAs with shorter (non-pathogenic length) r(CUG) repeats

Compound: C[C@@H](C(=O)N(C)[C@@H](C)C(=O)N(C)[C@@H](C)C(=O)N(C)[C@@H](C)C(=O)N(CCCCN(C)C(=O)CCCOc1cccc(-c2nc3ccc(-c4nc5cc(N6CCN(C)CC6)ccc5[nH]4)cc3[nH]2)c1)CC(N)=O)N(C)C(=O)CCCOc1cccc(-c2nc3ccc(-c4nc5cc(N6CCN(C)CC6)ccc5[nH]4)cc3[nH]2)c1 [2H-K4NMeS]
- stability in microsomes (in words) [2]: stable in microsomes; also recorded: stable to rat microsomes
- rescue of pre-mRNA splicing defect (r(CUG)exp [1]; DM1 patient-derived fibroblasts, concentrations greater than 100 nM): > 50%
- potency at improving Clen1 pre-mRNA splicing defect compared to 2H-K4NMe (r(CUG)exp [3]): > 7 fold

Compound: C#CC(=O)NCCCCCC(=O)N(CCN(C)C(=O)CCCOc1cccc(-c2nc3ccc(-c4nc5cc(N6CCN(C)CC6)ccc5[nH]4)cc3[nH]2)c1)CC(=O)N(C)[C@@H](C)C(=O)N(C)[C@@H](C)C(=O)N(C)[C@@H](C)C(=O)N(CCCCN(C)C(=O)CCCOc1cccc(-c2nc3ccc(-c4nc5cc(N6CCN(C)CC6)ccc5[nH]4)cc3[nH]2)c1)CC(=O)N(CCCN=[N+]=[N-])CC(N)=O [N3-2H-K4NMeS-Aak]
- improvement of DM1-associated pre-mRNA splicing defects (r(CUG)exp [1]; DM1 patient-derived fibroblasts, 10 nM dosage): > 50%
- RNA nuclear foci (r(CUG)exp [4]): far fewer foci are observed
- DMPK translational defect [5]: improved the DMPK translational defect at nanomolar concentrations
- effect on translation in cells without pathogenic repeats [6]: has no effect on cells that did not have pathogenic repeats

Compound: [N-]=[N+]=NCC1OC(OC2C(N)CC(N)C(OC3OC(CN)C(O)C(O)C3O)C2O)C(O)C(N)C1O (centres unmarked) [N3-K]
- average number of foci per cell (r(CCUG)300): 6±2 foci per cell
